Assay results taken from PubChem BioAssay (NCI).
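Test compounds were applied to cells in 96-well plates for 48 hours at 5 doses. GI50 = concentration required for 50% inhibition of growth. The concentration for full growth arrest is given as TGI.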

Assays:
Assay in all cases: NCI anticancer screen, dose series, 48 h
786-0 renal = system: 786-0 renal
A498 renal = system: A498 renal
A549 NSCLC = system: A549 NSCLC
ACHN renal = system: ACHN renal
BT-549 breast = system: BT-549 breast
CAKI-1 renal = system: CAKI-1 renal
CCRF-CEM leukemia = system: CCRF-CEM leukemia
COLO 205 colon = system: COLO 205 colon
DU-145 prostate = system: DU-145 prostate
EKVX NSCLC = system: EKVX NSCLC
HCC-2998 colon = system: HCC-2998 colon
HCT-116 colon = system: HCT-116 colon
HCT-15 colon = system: HCT-15 colon
HL-60(TB) leukemia = system: HL-60(TB) leukemia
HOP-62 NSCLC = system: HOP-62 NSCLC
HOP-92 NSCLC = system: HOP-92 NSCLC
HS 578T breast = system: HS 578T breast
HT29 colon = system: HT29 colon
IGROV1 ovarian = system: IGROV1 ovarian
K-562 leukemia = system: K-562 leukemia
KM12 colon = system: KM12 colon
LOX IMVI melanoma = system: LOX IMVI melanoma
M14 melanoma = system: M14 melanoma
MALME-3M melanoma = system: MALME-3M melanoma
MCF7 breast = system: MCF7 breast
MDA-MB-231 breast = system: MDA-MB-231 breast
MDA-MB-435 = system: MDA-MB-435
MDA-MB-468 breast = system: MDA-MB-468 breast
MOLT-4 leukemia = system: MOLT-4 leukemia
NCI-H226 lung = system: NCI-H226 lung
NCI-H23 lung = system: NCI-H23 lung
NCI-H460 lung = system: NCI-H460 lung
NCI-H522 lung = system: NCI-H522 lung
NCI/ADR-RES ovarian = system: NCI/ADR-RES ovarian
OVCAR-3 ovarian = system: OVCAR-3 ovarian
OVCAR-4 ovarian = system: OVCAR-4 ovarian
OVCAR-5 ovarian = system: OVCAR-5 ovarian
OVCAR-8 ovarian = system: OVCAR-8 ovarian
PC-3 prostate = system: PC-3 prostate
RPMI-8226 leukemia = system: RPMI-8226 leukemia
RXF 393 renal = system: RXF 393 renal
SF-268 CNS = system: SF-268 CNS
SF-295 CNS = system: SF-295 CNS
SF-539 CNS = system: SF-539 CNS
SK-MEL-2 melanoma = system: SK-MEL-2 melanoma
SK-MEL-28 melanoma = system: SK-MEL-28 melanoma
SK-MEL-5 melanoma = system: SK-MEL-5 melanoma
SK-OV-3 ovarian = system: SK-OV-3 ovarian
SN12C renal = system: SN12C renal
SNB-19 CNS = system: SNB-19 CNS
SNB-75 CNS = system: SNB-75 CNS
SR leukemia = system: SR leukemia
SW-620 colon = system: SW-620 colon
T-47D breast = system: T-47D breast
TK-10 renal = system: TK-10 renal
U251 CNS = system: U251 CNS
UACC-257 melanoma = system: UACC-257 melanoma
UACC-62 melanoma = system: UACC-62 melanoma
UO-31 renal = system: UO-31 renal

`COc1ccc(-c2nnc3c(/C=C/c4ccc(Br)cc4)nc4ccccc4n23)cc1` gave a GI50 (786-0 renal) of 1.54 µM, a TGI (786-0 renal) of 3.81 µM and a GI50 (A498 renal) of 22.8 µM. It also gave a TGI (A498 renal) of 91.4 µM, a GI50 (A549 NSCLC) of 12 µM and a TGI (A549 NSCLC) of 24.4 µM. It also gave a GI50 (ACHN renal) of 2.55 µM, a TGI (ACHN renal) of 9.06 µM and a GI50 (BT-549 breast) of 2.37 µM. It also gave a TGI (BT-549 breast) of 15.3 µM, a GI50 (CAKI-1 renal) of 11.3 µM and a TGI (CAKI-1 renal) of 23.3 µM. For the same compound, the GI50 (CCRF-CEM leukemia) was 1.39 µM, the TGI (CCRF-CEM leukemia) was 4.9 µM and the GI50 (COLO 205 colon) was 4.19 µM. It also gave a TGI (COLO 205 colon) of 15.1 µM, a GI50 (DU-145 prostate) of 5.24 µM and a TGI (DU-145 prostate) of 17.7 µM. The GI50 (EKVX NSCLC) was 12.1 µM, the TGI (EKVX NSCLC) was 26.1 µM and the GI50 (HCC-2998 colon) was 12.1 µM. The TGI (HCC-2998 colon) was 24.5 µM, the GI50 (HCT-116 colon) was 1.47 µM and the TGI (HCT-116 colon) was 3.2 µM. It also gave a GI50 (HCT-15 colon) of 1.47 µM, a TGI (HCT-15 colon) of 3.25 µM and a GI50 (HL-60(TB) leukemia) of 3.43 µM. It also gave a TGI (HL-60(TB) leukemia) of 16.8 µM, a GI50 (HOP-62 NSCLC) of 15.5 µM and a TGI (HOP-62 NSCLC) of 32 µM. For the same compound, the GI50 (HOP-92 NSCLC) was 1.14 µM, the TGI (HOP-92 NSCLC) was 7.29 µM and the GI50 (HS 578T breast) was 16.7 µM. The TGI (HS 578T breast) was 57 µM, the GI50 (HT29 colon) was 2.56 µM and the TGI (HT29 colon) was 9.29 µM. The GI50 (IGROV1 ovarian) was 10.7 µM, the TGI (IGROV1 ovarian) was 22.6 µM and the GI50 (K-562 leukemia) was 0.431 µM. For the same compound, the TGI (K-562 leukemia) was 13.1 µM, the GI50 (KM12 colon) was 12.6 µM and the TGI (KM12 colon) was 25.1 µM. It also gave a GI50 (LOX IMVI melanoma) of 0.883 µM, a TGI (LOX IMVI melanoma) of 2.11 µM and a GI50 (M14 melanoma) of 2.41 µM. For the same compound, the TGI (M14 melanoma) was 10.2 µM, the GI50 (MALME-3M melanoma) was 1.3 µM and the TGI (MALME-3M melanoma) was 2.72 µM. The GI50 (MCF7 breast) was 2.8 µM, the TGI (MCF7 breast) was 14.9 µM and the GI50 (MDA-MB-231 breast) was 4.82 µM. It also gave a TGI (MDA-MB-231 breast) of 17.5 µM, a GI50 (MDA-MB-435) of 11.7 µM and a TGI (MDA-MB-435) of 23.9 µM. The GI50 (MDA-MB-468 breast) was 2.08 µM, the TGI (MDA-MB-468 breast) was 8.39 µM and the GI50 (MOLT-4 leukemia) was 2.7 µM. For the same compound, the TGI (MOLT-4 leukemia) was 12.1 µM, the GI50 (NCI-H226 lung) was 1.68 µM and the TGI (NCI-H226 lung) was 4.5 µM. For the same compound, the GI50 (NCI-H23 lung) was 9.39 µM, the TGI (NCI-H23 lung) was 21.3 µM and the GI50 (NCI-H460 lung) was 11.2 µM. For the same compound, the TGI (NCI-H460 lung) was 23.2 µM, the GI50 (NCI-H522 lung) was 0.156 µM and the TGI (NCI-H522 lung) was 0.301 µM. The GI50 (NCI/ADR-RES ovarian) was 10.3 µM, the TGI (NCI/ADR-RES ovarian) was 25.9 µM and the GI50 (OVCAR-3 ovarian) was 3.43 µM. The TGI (OVCAR-3 ovarian) was 14 µM, the GI50 (OVCAR-4 ovarian) was 3.96 µM and the TGI (OVCAR-4 ovarian) was 16.4 µM. The GI50 (OVCAR-5 ovarian) was 3.97 µM, the TGI (OVCAR-5 ovarian) was 16 µM and the GI50 (OVCAR-8 ovarian) was 10.4 µM. For the same compound, the TGI (OVCAR-8 ovarian) was 22.1 µM, the GI50 (PC-3 prostate) was 11.4 µM and the TGI (PC-3 prostate) was 23.5 µM. It also gave a GI50 (RPMI-8226 leukemia) of 4.11 µM, a TGI (RPMI-8226 leukemia) of 18.4 µM and a GI50 (RXF 393 renal) of 1.24 µM. For the same compound, the TGI (RXF 393 renal) was 2.53 µM, the GI50 (SF-268 CNS) was 14.4 µM and the TGI (SF-268 CNS) was 34.7 µM. For the same compound, the GI50 (SF-295 CNS) was 16 µM, the TGI (SF-295 CNS) was 33.1 µM and the GI50 (SF-539 CNS) was 2.45 µM. It also gave a TGI (SF-539 CNS) of 6.91 µM, a GI50 (SK-MEL-2 melanoma) of 10.9 µM and a TGI (SK-MEL-2 melanoma) of 22.8 µM. The GI50 (SK-MEL-28 melanoma) was 8.85 µM, the TGI (SK-MEL-28 melanoma) was 21.1 µM and the GI50 (SK-MEL-5 melanoma) was 10.8 µM. The TGI (SK-MEL-5 melanoma) was 22.7 µM, the GI50 (SK-OV-3 ovarian) was 21.7 µM and the TGI (SK-OV-3 ovarian) was 64 µM. For the same compound, the GI50 (SN12C renal) was 2.24 µM, the TGI (SN12C renal) was 8.9 µM and the GI50 (SNB-19 CNS) was 13.7 µM. The TGI (SNB-19 CNS) was 26.8 µM, the GI50 (SNB-75 CNS) was 16 µM and the TGI (SNB-75 CNS) was 34.1 µM. For the same compound, the GI50 (SR leukemia) was 1.04 µM, the TGI (SR leukemia) was 3.94 µM and the GI50 (SW-620 colon) was 0.728 µM. It also gave a TGI (SW-620 colon) of 2.24 µM, a GI50 (T-47D breast) of 10.5 µM and a TGI (T-47D breast) of 25.5 µM. For the same compound, the GI50 (TK-10 renal) was 13.5 µM, the TGI (TK-10 renal) was 26.3 µM and the GI50 (U251 CNS) was 6.97 µM. The TGI (U251 CNS) was 19.7 µM, the GI50 (UACC-257 melanoma) was 13.1 µM and the TGI (UACC-257 melanoma) was 25.8 µM. For the same compound, the GI50 (UACC-62 melanoma) was 5.61 µM, the TGI (UACC-62 melanoma) was 19.5 µM and the GI50 (UO-31 renal) was 2.93 µM. For the same compound, the TGI (UO-31 renal) was 16.4 µM.
